# Target: T1, ALDH2 (Homo sapiens, UniProt P05091)
# T1 sequence (P05091 18-517): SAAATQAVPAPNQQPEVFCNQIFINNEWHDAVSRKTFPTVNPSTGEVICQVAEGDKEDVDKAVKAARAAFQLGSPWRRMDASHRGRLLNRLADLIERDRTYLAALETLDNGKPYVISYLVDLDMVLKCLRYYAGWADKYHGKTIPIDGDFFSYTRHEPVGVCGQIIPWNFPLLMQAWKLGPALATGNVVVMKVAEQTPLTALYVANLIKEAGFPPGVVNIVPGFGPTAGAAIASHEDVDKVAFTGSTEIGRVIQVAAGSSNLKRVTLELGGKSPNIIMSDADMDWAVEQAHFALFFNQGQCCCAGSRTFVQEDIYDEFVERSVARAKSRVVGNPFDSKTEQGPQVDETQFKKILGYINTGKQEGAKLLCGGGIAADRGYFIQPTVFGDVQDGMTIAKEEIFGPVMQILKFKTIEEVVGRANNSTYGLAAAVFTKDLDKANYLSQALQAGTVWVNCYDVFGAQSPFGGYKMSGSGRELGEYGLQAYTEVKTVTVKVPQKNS
# Assay: Selectivity biochemical assay, NAD(P)H-Glo Detection System
# Description: Materials: ALDH2 was purchased from Abnova. Tris(hydroxymethyl)aminomethane (Tris) was purchased from MP Biomedicals. TCEP, ethylenediaminetetraacetic acid (EDTA), propionaldehyde, DMSO and Tween-20 were purchased from Sigma. Nicotinamide adenine dinucleotide (NAD) was obtained from Abcam. The NAD(P)H-Glo™ Detection System was purchased from Promega. White, non-binding surface, 384 well plates were supplied by Corning (#3574).
# Method: Inhibition of ALDH1A3 was assessed using the NAD(P)H-Glo™ Detection System (Cat. No. G9062) from Promega. This assay detects the production of NADH from NAD by ALDH1A3 via the coupled enzymatic conversion of a proluciferin reductase substrate to generate a luminescent signal. Inhibition of ALDH1A3 by small molecule inhibitors will result in reduction or abrogation of luminescence signal increase above background. Inhibition of ALDH1A1, ALDH1A2 and ALDH2 (selectivity assays) were assessed using the same assay.
# Compounds were dosed into Corning 384 well assay plates using an Echo acoustic dispenser to give 10 point curves in a 3-fold dilution series. Compounds were dispensed from a 20 mM DMSO stock and initially screened at a top concentration of 20 μM (ALDH1A3) or 250 μM (ALDH1A1, ALDH1A2 & ALDH2). Enzyme was added to the plate in a 5 μL volume, according to the final concentrations in table 1 below, and pre-incubated with compound for 30 minutes at room temperature before the addition of 5 μL of the substrate (propionaldehyde) and cofactor (NAD), to effect final concentrations equal to the Km as shown in Table 1. The assay buffer used consisted of 40 mM Tris for 1A1 (pH 7.6), 1A2 (pH 7.6) and 1A3 (pH 9.0) and 10 mM Tris for ALDH2 (pH 8.0) supplemented with 1 mM TCEP, 0.01% Tween-20, 0.1 mM EDTA. The reaction mix was incubated at 26° C. on a shaking incubator for 30 minutes before being stopped by the addition of 10 μL of the Promega detection reagent and 100×IC50 of inhibitors of the respective isoforms. After stopping the reaction the plate was incubated for 60 minutes at room temperature and the luminescence signal read on a PheraStar FS microplate reader (BMG Labtech) and resulting IC50 values were calculated using Dotmatics software.
# Enzyme, substrate and cofactor concentrations were selected to ensure the reaction ran under initial velocity conditions.
row,SMILES,IC50
1,"O=C1CCc2cc(NC(=O)c3cncnc3-c3cccc(F)c3)ccc2N1 [ALDHI-1018, 4-(3-fluorophenyl)-N-(2-oxo-3,4-dihydro-1H-quinolin-6-yl)pyrimidine-5-carboxamide]",≥ 100 µM
2,"O=C1CCc2cc(OCCN3CCCC3c3cccs3)ccc2N1 (centres unmarked) [ALDHI-2013, 6-[2-[2-(2-thienyl)pyrrolidin-1-yl]ethoxy]-3,4-dihydro-1H-quinolin-2-one]",≥ 100 µM
3,"CN(CCOc1ccc2c(c1)CCC(=O)N2)C(CO)c1cccc(F)c1 (centres unmarked) [ALDHI-3003, 6-[2-[[1-(3-fluorophenyl)-2-hydroxy-ethyl]-methyl-amino]ethoxy]-3,4-dihydro-1H-quinolin-2-one]",≥ 100 µM
4,"O=C1CCc2cc(NC(=O)c3scnc3-c3ccccc3Cl)ccc2N1 [ALDHI-1012, 4-(2-chlorophenyl)-N-(2-oxo-3,4-dihydro-1H-quinolin-6-yl)thiazole-5-carboxamide]",≥ 100 µM
5,"O=C1CCCc2cc(OCCN3CCCC3c3cccc(F)c3)ccc2N1 (centres unmarked) [ALDHI-2020, 7-[2-[2-(3-fluorophenyl)pyrrolidin-1-yl]ethoxy]-1,3,4,5-tetrahydro-1-benzazepin-2-one]",≥ 100 µM
6,"Cc1ccccc1C1CCCN1CCOc1ccc2c(c1)CCC(=O)N2 (centres unmarked) [ALDHI-2012, 6-[2-[2-(o-tolyl)pyrrolidin-1-yl]ethoxy]-3,4-dihydro-1H-quinolin-2-one]",≥ 100 µM
7,"O=C1CCc2cc(NC(=O)c3c[nH]nc3-c3cccc(F)c3)ccc2N1 [ALDHI-1006, 3-(3-fluorophenyl)-N-(2-oxo-1,2,3,4-tetrahydroquinolin-6-yl)-1H-pyrazole-4-carboxamide]",10 to 100 µM
8,"O=C1CCc2cc(OCCN3CC(O)CC3c3cccc(F)c3)ccc2N1 (mixture of isomers) [ALDHI-2035, 6-[2-[2-(3-fluorophenyl)-4-hydroxy-pyrrolidin-1-yl]ethoxy]-3,4-dihydro-1H-quinolin-2-one]",≥ 100 µM
9,"O=C1CCc2cc(OCCN3CCCC3c3cc(F)cc(F)c3)ccc2N1 (centres unmarked) [ALDHI-2032, 6-[2-[2-(3,5-difluorophenyl)pyrrolidin-1-yl]ethoxy]-3,4-dihydro-1H-quinolin-2-one]",≥ 100 µM
10,"O=C1CCc2cc(OCCN3CCC[C@@H]3c3cccc(F)c3)ccc2N1 [ALDHI-2007, 6-[2-[(2R)-2-(3-fluorophenyl)pyrrolidin-1-yl]ethoxy]-3,4-dihydro-1H-quinolin-2-one]",≥ 100 µM
11,"Cc1ccc(C2CCCN2CCOc2ccc3c(c2)CCC(=O)N3)cn1 (centres unmarked) [ALDHI-2030, 6-[2-[2-(6-methyl-3-pyridyl)pyrrolidin-1-yl]ethoxy]-3,4-dihydro-1H-quinolin-2-one]",≥ 100 µM
12,"COc1cccc(C2CCCN2CCOc2ccc3c(c2)CCC(=O)N3)c1 (centres unmarked) [ALDHI-2034, 6-[2-[2-(3-methoxyphenyl)pyrrolidin-1-yl]ethoxy]-3,4-dihydro-1H-quinolin-2-one]",≥ 100 µM
13,"CC1(c2ccccc2)COCCN1CCOc1ccc2c(c1)CCC(=O)N2 (centres unmarked) [ALDHI-2040, 6-[2-(3-methyl-3-phenyl-morpholin-4-yl)ethoxy]-3,4-dihydro-1H-quinolin-2-one]",≥ 100 µM
14,"O=C1CCc2cc(NC(=O)c3ccccc3-c3cccc(F)c3)ccc2N1 [ALDHI-1007, 3′-fluoro-N-(2-oxo-1,2,3,4-tetrahydroquinolin-6-yl)-[1,1′-biphenyl]-2-carboxamide]",≥ 100 µM
15,"O=C1CCc2cc(OCCN3CCOCC3c3cccc(F)c3)ccc2N1 (centres unmarked) [ALDHI-2031, 6-[2-[3-(3-fluorophenyl)morpholin-4-yl]ethoxy]-3,4-dihydro-1H-quinolin-2-one]",≥ 100 µM
16,"CN(CCOc1ccc2c(c1)CCC(=O)N2)C(=O)c1cccnc1 [ALDHI-3013, N-methyl-N-[2-[(2-oxo-3,4-dihydro-1H-quinolin-6-yl)oxy]ethyl]pyridine-3-carboxamide]",≥ 100 µM
17,"O=C1CCc2cc(NC(=O)c3ncsc3-c3ccsc3)ccc2N1 [ALDHI-1011, N-(2-oxo-3,4-dihydro-1H-quinolin-6-yl)-5-(3-thienyl)thiazole-4-carboxamide]",≥ 100 µM
18,"O=C1CCc2cc(OCCN3CCCC3c3ccsc3)ccc2N1 (centres unmarked) [ALDHI-2014, 6-[2-[2-(3-thienyl)pyrrolidin-1-yl]ethoxy]-3,4-dihydro-1H-quinolin-2-one]",≥ 100 µM

row,SMILES,IC50
1,"CC1(C)Oc2cc(OCCN3CCCC3c3cccc(F)c3)ccc2NC1=O (centres unmarked) [ALDHI-2043, 7-[2-[2-(3-fluorophenyl)pyrrolidin-1-yl]ethoxy]-2,2-dimethyl-4H-1,4-benzoxazin-3-one]",≥ 100 µM
2,"Cc1nc(C2CCCN2CCOc2ccc3c(c2)CCC(=O)N3)cs1 (centres unmarked) [ALDHI-2033, 6-[2-[2-(2-methylthiazol-4-yl)pyrrolidin-1-yl]ethoxy]-3,4-dihydro-1H-quinolin-2-one]",≥ 100 µM
3,"O=C1CCc2cc(NC(=O)c3scnc3-c3ccccc3F)ccc2N1 [ALDHI-1021, 4-(2-fluorophenyl)-N-(2-oxo-3,4-dihydro-1H-quinolin-6-yl)thiazole-5-carboxamide]",≥ 100 µM
4,"CN(CCOc1ccc2c(c1)CCC(=O)N2)Cc1cccnc1 [ALDHI-3010, 6-[2-[methyl(3-pyridylmethyl)amino]ethoxy]-3,4-dihydro-1H-quinolin-2-one]",≥ 100 µM
5,"O=C1CCc2cc(OCCN3CC(F)CC3c3cccc(F)c3)ccc2N1 (centres unmarked) [ALDHI-2052, 6-[2-[4-fluoro-2-(3-fluorophenyl)pyrrolidin-1-yl]ethoxy]-3,4-dihydro-1H-quinolin-2-one]",≥ 100 µM
6,"Cc1cccc(C2CCCN2CCOc2ccc3c(c2)CCC(=O)N3)c1 (centres unmarked) [ALDHI-2011, 6-[2-[2-(m-tolyl)pyrrolidin-1-yl]ethoxy]-3,4-dihydro-1H-quinolin-2-one]",≥ 100 µM
7,"Cc1noc(-c2ccccc2C(=O)Nc2ccc3c(c2)CCC(=O)N3)n1 [ALDHI-1008, 2-(3-methyl-1,2,4-oxadiazol-5-yl)-N-(2-oxo-1,2,3,4-tetrahydroquinolin-6-yl)benzamide]",≥ 100 µM
8,"O=c1ccc2cc(OCCN3CCCC3c3cccc(F)c3)ccc2[nH]1 (centres unmarked) [ALDHI-2022, 6-[2-[2-(3-fluorophenyl)pyrrolidin-1-yl]ethoxy]-1H-quinolin-2-one]",≥ 100 µM
9,"CN(C)c1nc(-c2cccc(F)c2)c(C(=O)Nc2ccc3c(c2)CCC(=O)N3)s1 [ALDHI-1002, 2-(dimethylamino)-4-(3-fluorophenyl)-N-(2-oxo-3,4-dihydro-1H-quinolin-6-yl)thiazole-5-carboxamide]",≥ 100 µM
10,"O=C1CCc2cc(OCCN3CCCCC3c3cccc(F)c3)ccc2N1 (centres unmarked) [ALDHI-2038, 6-[2-[2-(3-fluorophenyl)-1-piperidyl]ethoxy]-3,4-dihydro-1H-quinolin-2-one]",≥ 100 µM
11,"O=C1CCc2cc(OCCN3CCCC3c3cccc(F)c3)c(F)cc2N1 (centres unmarked) [ALDHI-2050, 7-fluoro-6-[2-[2-(3-fluorophenyl)pyrrolidin-1-yl]ethoxy]-3,4-dihydro-1H-quinolin-2-one]",≥ 100 µM
12,"O=C1CSc2cc(OCCN3CCCC3c3ccncc3)ccc2N1 (centres unmarked) [ALDHI-2029, 7-[2-[2-(4-pyridyl)pyrrolidin-1-yl]ethoxy]-4H-1,4-benzothiazin-3-one]",≥ 100 µM
13,"O=C1CCc2cc(NC(=O)c3ncsc3-c3cccc(F)c3)ccc2N1 [ALDHI-1014, 5-(3-fluorophenyl)-N-(2-oxo-3,4-dihydro-1H-quinolin-6-yl)thiazole-4-carboxamide]",≥ 100 µM
14,"O=C1CCc2cc(OCCn3ccnc3-c3ccccc3)ccc2N1 [ALDHI-2041, 6-[2-(2-phenylimidazol-1-yl)ethoxy]-3,4-dihydro-1H-quinolin-2-one]",≥ 100 µM
15,"O=C1CCc2cc(OCCN3CCCC3c3ccc(F)c(F)c3)ccc2N1 (centres unmarked) [ALDHI-2039, 6-[2-[2-(3,4-difluorophenyl)pyrrolidin-1-yl]ethoxy]-3,4-dihydro-1H-quinolin-2-one]",≥ 100 µM
16,"O=C1CCc2cc(OCCN3CCCC3c3ccccc3)ccc2N1 (centres unmarked) [ALDHI-2019, 6-[2-(2-phenylpyrrolidin-1-yl)ethoxy]-3,4-dihydro-1H-quinolin-2-one]",≥ 100 µM
17,"CCn1cc(C2CCCN2CCOc2ccc3c(c2)CCC(=O)N3)cn1 (centres unmarked) [ALDHI-2016, 6-[2-[2-(1-ethylpyrazol-4-yl)pyrrolidin-1-yl]ethoxy]-3,4-dihydro-1H-quinolin-2-one]",≥ 100 µM

# From patent US20240174634A1, “Aldehyde Dehydrogenase Inhibitors and Their Therapeutic Use” (priority 2020, published 2024)
